The subject of data set [1] is CoA-IT. As to the kind of experiment: CoA-IT activity assay in U937 cell microsomes. The format is biochemical. The text has this:
The following is a method to measure CoA-IT activity and the effects of compounds on CoA-IT activity. The assay is based upon mixing cellular material containing CoA-IT activity with a stable lyso phospholipid such as […] and measuring the production of phospholipid product such as […] occurring in the absence of added CoA or CoA-fatty acids.
Any inflammatory cell that contains high levels of CoA-IT activity can be used, such as neutrophils, macrophages or cell lines such as U937 cells. U937 cells were obtained from American Type Culture Collection and grown in RPMI-1640 media (Gibco, Grand Island, N.Y.) supplemented with 10% fetal bovine serum (Hyclone, Logan, UT) at 37° C., 5% CO2. Cells were grown without differentiation (basal state) by any agent, such as dimethyl sulfoxide. As used herein, “inflammatory cells” include, but are not limited to neutrophils, macrophages, monocytes, lymphocytes, eosinophils, basophils, and mast cells.
Microsomes were prepared using standard techniques. In this case, cells were washed with a buffer of 250 mM sucrose, 10 mM Tris, 1 mM EGTA, 1 mM MgCl2, pH 7.4 and ruptured by N2 cavitation (750 psi, 10 minutes). The ruptured cells were centrifuged 1000×g, 5 minutes. The resulting supernatant was centrifuged at 20,000×g,˜20 minutes. Microsomes were prepared from this supernatant by centrifugation at 100,000×g, 60 minutes. The resulting pellet was washed once with assay buffer (150 mM NaCl, 10 mM Na2KPO4, 1 mM EGTA, pH 7.4), recentrifuged and the pellet resuspended in assay buffer (4-20 mg protein/ml) and was stored at −80° C. until assayed.
CoA-II activity was measured in 1.5 ml centrifuge tubes in a total volume of 100 ul. Microsomes were diluted in assay buffer to the desired protein concentration (6-20 ug/tube). The reaction was initiated by addition of [3H]1-alkyl-2-lyso-sn-glycero-3-phosphocholine (GPC) (˜0.1 uCi/tube) and 1 μM final cold 1-alkyl-2-lyso-GPC in assay buffer with 0.25 mg/ml fatty acid-poor bovine serum albumin (BSA) (Calbiochem, La Jolla, Calif.). [3H]1-alkyl-2-lyso-GPC, approximately 50 Ci/mmol, was from NEN-Dupont (Boston, Mass.) and cold 1-alkyl-2-lyso-GPC was from Biomol (Plymouth Meeting, Pa.). Microsomes were pretreated with desired agents for the desired time (10 minutes) before the addition of [3H]1-alkyl-2-lyso-GPC. The reaction was run for the desired tlime (10 minutes) at 37° C. The reaction was stopped and the lipids extracted by addition of 100 ul of chloroform:methanol (1:2, v/v) followed by 100 ul of chloroform and 100 ul of 1 M KCI. The samples were vortexed and centrifuged at high speed in a microfuge for 2-3 minutes. An aliquot of the chloroform-extracted materials were separated, usually by TLC in chloroform/methanol/acetic acid/water (50:25:8:4, v/v), visualized by radioscanning (Bioscan) and the product, [3H]1-alkyl-2-acyl-GPC, was scraped and quantified by liquid scintillation spectroscopy. […] Other methods can be used to separate substrate from product, including but not limited to column chromatography, affinity chromatography and post reaction derivitization.
Protein concentration were assessed using the protein assay reagents from Bio Rad (Richmond, Calif.).

Data set [2] concerns CoA-IT. As to conditions: literature, background; cited from earlier work.
The subject of the next data set is neoplastic cell lines. As to conditions: literature, background; several neoplastic cell lines; cited from earlier work.

Consider `O=S1(=O)CCn2c1nc(-c1ccc(F)cc1)c2-c1ccncc1` [6-(4′-Fluorophenyl)-5-(4-pyridyl)2,3-dihydroimidzo-[2,1-b]thiazole-dioxide], for which the “effect on CoA-IT activity” value in the data set on CoA-IT [1] (at concentrations up to 100 μM) is recorded as “no effect”.

Take `Fc1ccc(-c2nc3n(c2-c2ccncc2)CCS3)cc1` [6-(4′-Fluorophenyl)-5-(4-pyridyl)-2,3-dihydroimidzo-[2,1-b]thiazole]: the “effect on CoA-IT activity” value in the data set with CoA-IT [1] (at concentrations up to 100 μM) is given as “no effect”.

Consider `Cc1cc(C(C)(C)C)c(O)c(C(C)(C)C)c1` [BHT], for which, in the data set with CoA-IT [1] (at concentrations up to 100 μM), the “effect on CoA-IT activity” value is “no effect”.

Consider `CN(C)CCC=C1c2ccccc2COc2ccccc21` [Doxepine], for which the “effect on CoA-IT activity” value with CoA-IT [1] (at concentrations up to 100 μM) is on record as “did not inhibit”.

For `CCCCCCCCCCCCCCCCCCOCC(COP(=O)([O-])OCC[N+](C)(C)C)OC` (stereo not drawn) [ET-18-0-CH3, 1-0-octadecyl-2-0-methyl-phosphocholine], the “inhibition of CoA-IT” value with CoA-IT [2] is “potent inhibitor”. The “antiproliferative / apoptosis effect” value in the data set with neoplastic cell lines is “attenuate cell proliferation and induce apoptosis”.

Turning to `COC(=O)CCCO[C@@H]1NC(=O)[C@H]1NC(c1ccccc1)(c1ccccc1)c1ccccc1` [Example 17, (3S,4S)-4-[3-(Methoxycarbonyl)propoxy]-3-(triphenylmethylamino)azetidin-2-one], the “activity in microsomal CoA-IT assay under other conditions” value with CoA-IT [1] (increased uM or longer pretreatment time) was “active at either increased uM or longer pretreatment time”.

`O=C(Nc1ccc(Cl)c(C(F)(F)F)c1)Nc1cc(C(F)(F)F)ccc1Oc1cc(Cl)c(Cl)cc1S(=O)(=O)O` [SK&F 45905, 2-[2-[3-(4-Chloro-3-trifluoromethylphneyl)ureido]-4-tifluromethylphenoxy]-4,5-dichlorobenzene sulfonic acid]: the “inhibition of CoA-IT” value in the data set with CoA-IT [2] was “capable of inhibiting CoA-IT”. Besides, the “antiproliferative / apoptosis effect” value with neoplastic cell lines is “possess antiproliferative properties”.

Consider `CCOP(=O)(CCCCCCCn1c(-c2ccccc2)c(-c2ccccc2)n(-c2ccccc2)c1=O)OCC` [SK&F 98625, Diethyl 7-(3,4,5-triphenyl-2-oxo-2,3-dihydroimidazol-1yl)heptane phosphonate], for which, in the data set on CoA-IT [2], the “inhibition of CoA-IT” value was “capable of inhibiting CoA-IT”. For the same compound, the “antiproliferative / apoptosis effect” value in the data set with neoplastic cell lines is “possess antiproliferative properties”.

As for `COc1cccc2c1cc([N+](=O)[O-])c1c(C(=O)O)cc3c(c12)OCO3` [aristolochic acid], the “effect on CoA-IT activity” value in the data set with CoA-IT [1] (at concentrations up to 500 μM) is reported as “no effect”.

`COc1ccc2c(c1)c(CC(=O)O)c(C)n2C(=O)c1ccc(Cl)cc1` [indomethicin]: the “effect on CoA-IT activity” value with CoA-IT [1] (at concentrations up to 100 μM) was “no effect”.

Turning to `COc1ccc2cc([C@H](C)C(=O)O)ccc2c1` [naproxen], in the data set with CoA-IT [1] (at concentrations up to 100 μM), the “effect on CoA-IT activity” value was “no effect”.

For `CCN(CC)CCCC(C)Nc1c2ccc(Cl)cc2nc2ccc(OC)cc12` (stereo not drawn) [quinacrine], in the data set with CoA-IT [1] (at concentrations up to 500 μM), the “effect on CoA-IT activity” value was “no effect”.

These data come from patent US6451785B1, “Beta lactams as antiproliferative agents” (SmithKline Beecham Corporation, priority 1997, dated 2002).
